Tests used:
yellow nutsedge = experiment: Test C pre-/postemergence test; assay type: in vivo, Cyperus esculentus; settings: Preemergence
Summary of the method: (§1)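 Compounds in a non-phytotoxic solvent with surfactant applied preemergence to seeded pots and, at the same time, postemergence to plants 2–18 cm tall (1- to 4-leaf stage). Paddy tests: pots flooded to 3 cm, compound applied into the water, depth held throughout.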

naked crabgrass = experiment: Test F preemergence test; assay type: in vivo, Digitaria nuda; settings: scale 0 to 100
Summary of the method: (§2)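 Test chemicals were formulated in a non-phytotoxic solvent mixture with surfactant and applied preemergence to planted seeds or postemergence to sugarcane plants. Plants were kept in a greenhouse for 14 to 21 days, then visually evaluated against controls.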

common ragweed [1] = experiment: Test F preemergence test; assay type: in vivo, Ambrosia elation; settings: scale 0 to 100
Summary of the method: as §2

broadleaf signalgrass = experiment: Test F preemergence test; assay type: in vivo, Brachiaria platyphylla; settings: scale 0 to 100
Summary of the method: as §2

purple nutsedge = experiment: Test F preemergence test; assay type: in vivo, Cyperus rotundus; settings: scale 0 to 100
Summary of the method: as §2

itchgrass = experiment: Test F preemergence test; assay type: in vivo, Rottboellia cochinchinensis; settings: scale 0 to 100
Summary of the method: as §2

bermudagrass = experiment: Test F preemergence test; assay type: in vivo, Cynodon dactylon; settings: scale 0 to 100
Summary of the method: as §2

prickly sida = experiment: Test F preemergence test; assay type: in vivo, Sida spinosa; settings: scale 0 to 100
Summary of the method: as §2

green foxtail = experiment: Test F preemergence test; assay type: in vivo, Setaria viridis; settings: scale 0 to 100
Summary of the method: as §2

crabgrass = experiment: Test A pre-/postemergence greenhouse test; assay type: in vivo, Digitaria sanguinalis; settings: for Crabgrass, Large plant response rating: 0 to 100 scale
Summary of the method: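 Visual injury ratings, made relative to untreated controls roughly ten days after treatment, cover both preemergence and postemergence application. Compounds in a surfactant-containing non-phytotoxic solvent were sprayed onto the soil surface after sowing and, simultaneously, onto young plants at the one- to two-leaf stage.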

pitted morningglory = experiment: Test F preemergence test; assay type: in vivo, Ipomoea lacunosa; settings: scale 0 to 100
Summary of the method: as §2

kochia = experiment: Test C pre-/postemergence test; assay type: in vivo, Kochia scoparia; settings: Preemergence
Summary of the method: as §1

common ragweed [2] = experiment: Test C pre-/postemergence test; assay type: in vivo, Ambrosia elation; settings: Preemergence
Summary of the method: as §1

goosegrass = experiment: Test F preemergence test; assay type: in vivo, Eleusine indica; settings: scale 0 to 100
Summary of the method: as §2

[3] = 31 g ai/ha, scale 0 to 100 (0 no effect, 100 complete control)

## Cc1cc[n+]([O-])c(S(=O)(=O)Cc2c(C(F)(F)F)nn(C)c2OCC(F)(F)F)c1 [Compound 31]
Yellow nutsedge; 62 g ai/ha, scale 0 to 100
  Nutsedge, Yellow plant response rating: 100
Yellow nutsedge; [3]
  Plant response rating, Nutsedge, Yellow: 60
Naked crabgrass; 16 g ai/ha, preemergence
  Plant response rating, Crabgrass, Naked: 75
Naked crabgrass; 62 g ai/ha, Preemergence
  Crabgrass, Naked plant response rating: 100
Naked crabgrass; 125 g ai/ha, preemergence
  Crabgrass, Naked plant response rating: 100
Naked crabgrass; Preemergence, 31 g ai/ha
  Plant response rating, Crabgrass, Naked: 85
Common ragweed [1]; 16 g ai/ha, preemergence
  Plant response rating, Ragweed: 20
Common ragweed [1]; 125 g ai/ha, preemergence
  Ragweed plant response rating: 100
Common ragweed [1]; Preemergence, 62 g ai/ha
  Plant response rating, Ragweed: 90
Common ragweed [1]; Preemergence, 31 g ai/ha
  Plant response rating, Ragweed: 75
Broadleaf signalgrass; 16 g ai/ha, preemergence
  Plant response rating, Signalgrass: 35
Broadleaf signalgrass; 125 g ai/ha, preemergence
  Signalgrass plant response rating: 98
Broadleaf signalgrass; Preemergence, 62 g ai/ha
  Plant response rating, Signalgrass: 90
Broadleaf signalgrass; Preemergence, 31 g ai/ha
  Plant response rating, Signalgrass: 60
Purple nutsedge; 16 g ai/ha, preemergence
  Plant response rating, Purple Nutsedge: 40
Purple nutsedge; 62 g ai/ha, Preemergence
  Purple Nutsedge plant response rating: 70
Purple nutsedge; 125 g ai/ha, preemergence
  Purple Nutsedge plant response rating: 100
Purple nutsedge; Preemergence, 31 g ai/ha
  Plant response rating, Purple Nutsedge: 50
itchgrass; 16 g ai/ha, preemergence
  Plant response rating, Itchgrass: 10
itchgrass; 62 g ai/ha, Preemergence
  Itchgrass plant response rating: 60
itchgrass; 125 g ai/ha, preemergence
  Itchgrass plant response rating: 80
itchgrass; Preemergence, 31 g ai/ha
  Plant response rating, Itchgrass: 25
bermudagrass; 16 g ai/ha, preemergence
  Plant response rating, Bermudagrass: 20
bermudagrass; 62 g ai/ha, Preemergence
  Bermudagrass plant response rating: 100
bermudagrass; 125 g ai/ha, preemergence
  Bermudagrass plant response rating: 100
bermudagrass; Preemergence, 31 g ai/ha
  Plant response rating, Bermudagrass: 75
Prickly sida; 16 g ai/ha, preemergence
  Plant response rating, Prickly Sida: 40
Prickly sida; 62 g ai/ha, Preemergence
  Prickly Sida plant response rating: 80
Prickly sida; 125 g ai/ha, preemergence
  Prickly Sida plant response rating: 100
Prickly sida; Preemergence, 31 g ai/ha
  Plant response rating, Prickly Sida: 75
Green foxtail; 16 g ai/ha, preemergence
  Plant response rating, Foxtail, Green: 60
Green foxtail; 62 g ai/ha, Preemergence
  Foxtail, Green plant response rating: 100
Green foxtail; 125 g ai/ha, preemergence
  Foxtail, Green plant response rating: 100
Green foxtail; Preemergence, 31 g ai/ha
  Plant response rating, Foxtail, Green: 95
crabgrass; Postemergence, 125 g ai/ha, 0 is no effect, 100 is complete control
  Crabgrass, Large plant response rating: 70
crabgrass; Postemergence, 500 g ai/ha, 0 is no effect, 100 is complete control
  Crabgrass, Large plant response rating: 80
crabgrass; Preemergence, 125 g ai/ha, 0 no effect, 100 complete control
  Crabgrass, Large plant response rating: 90
crabgrass; Preemergence, 500 g ai/ha, 0 to 100 scale where 0 is no effect and 100 is complete control
  Plant response rating, Crabgrass, Large: 100
Pitted morningglory; 16 g ai/ha, preemergence
  Plant response rating, Morningglory: 0
Pitted morningglory; 62 g ai/ha, Preemergence
  Morningglory plant response rating: 60
Pitted morningglory; 125 g ai/ha, preemergence
  Morningglory plant response rating: 98
Pitted morningglory; Preemergence, 31 g ai/ha
  Plant response rating, Morningglory: 20
kochia; 62 g ai/ha, scale 0 to 100
  Kochia plant response rating: 100
kochia; [3]
  Plant response rating, Kochia: 100
Common ragweed [2]; 62 g ai/ha, scale 0 to 100
  Ragweed plant response rating: 10
Common ragweed [2]; [3]
  Plant response rating, Ragweed: 0
goosegrass; 16 g ai/ha, preemergence
  Plant response rating, Goosegrass: 50
goosegrass; 62 g ai/ha, Preemergence
  Goosegrass plant response rating: 100
goosegrass; 125 g ai/ha, preemergence
  Goosegrass plant response rating: 100
goosegrass; Preemergence, 31 g ai/ha
  Plant response rating, Goosegrass: 75
